Measurements reported in ChEMBL document CHEMBL5338773, “First-in-Class Selective Inhibitors of the Lysine Acetyltransferase KAT8” (J Med Chem, 2023).
The source made the active and inactive calls. The calls are words filed in the database; no cut-off is given here.

Legend:
[1] = target: T1, Protein deacetylase HDAC6 (Homo sapiens) (UniProt Q9UBN7); assay: Inhibition of human recombinant KDAC6 using Boc-Lys-(Ac)-AMC as substrate at 50 to 100 uM incubated for 45 mins by fluorescence microplate reader analysis; conditions: dose 50-100 µM
T1 sequence (whole entry): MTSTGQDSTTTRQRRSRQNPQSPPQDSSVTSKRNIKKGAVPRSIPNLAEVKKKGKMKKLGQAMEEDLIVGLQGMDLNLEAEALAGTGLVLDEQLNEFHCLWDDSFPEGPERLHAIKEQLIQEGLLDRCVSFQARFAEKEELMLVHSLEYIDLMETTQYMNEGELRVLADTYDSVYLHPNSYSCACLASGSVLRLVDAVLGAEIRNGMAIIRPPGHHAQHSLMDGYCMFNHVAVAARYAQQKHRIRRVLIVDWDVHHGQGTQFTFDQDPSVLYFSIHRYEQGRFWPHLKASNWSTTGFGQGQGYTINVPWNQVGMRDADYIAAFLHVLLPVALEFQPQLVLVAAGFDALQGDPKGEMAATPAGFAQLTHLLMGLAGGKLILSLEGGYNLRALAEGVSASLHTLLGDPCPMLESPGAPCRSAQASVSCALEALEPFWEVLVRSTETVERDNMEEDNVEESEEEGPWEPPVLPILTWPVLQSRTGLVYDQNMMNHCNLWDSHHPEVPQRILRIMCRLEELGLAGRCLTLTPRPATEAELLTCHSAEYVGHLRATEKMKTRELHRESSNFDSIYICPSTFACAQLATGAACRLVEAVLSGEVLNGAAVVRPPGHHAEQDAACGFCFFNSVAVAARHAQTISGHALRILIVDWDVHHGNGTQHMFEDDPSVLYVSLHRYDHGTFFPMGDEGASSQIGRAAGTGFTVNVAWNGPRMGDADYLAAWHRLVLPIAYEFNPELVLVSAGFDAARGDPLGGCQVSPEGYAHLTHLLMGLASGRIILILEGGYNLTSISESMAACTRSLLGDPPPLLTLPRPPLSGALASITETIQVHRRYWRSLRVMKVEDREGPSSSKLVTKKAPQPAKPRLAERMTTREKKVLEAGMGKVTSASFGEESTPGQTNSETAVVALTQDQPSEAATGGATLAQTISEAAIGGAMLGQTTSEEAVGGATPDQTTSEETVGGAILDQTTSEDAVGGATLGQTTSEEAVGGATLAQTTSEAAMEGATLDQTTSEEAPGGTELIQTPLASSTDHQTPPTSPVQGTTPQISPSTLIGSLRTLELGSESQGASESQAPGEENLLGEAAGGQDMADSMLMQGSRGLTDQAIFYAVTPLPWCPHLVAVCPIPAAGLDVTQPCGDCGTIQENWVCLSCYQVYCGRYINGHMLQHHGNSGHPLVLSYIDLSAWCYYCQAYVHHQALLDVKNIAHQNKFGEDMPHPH

HCT-116 [2] = assay: Downregulation of UCP2 mRNA expression in human HCT-116 cells at 100 uM incubated for 48 hrs by qRT-PCR analysis; assay type: functional, cell-based
HCT-116 [3] = assay: Antiproliferative activity against human HCT-116 cells assessed as cell proliferation inhibition at 100 uM incubated for 72 hrs by MTT assay; assay type: functional; set-up: scale not given: the % may be the effect or the level left
[4] = target: Histone acetyltransferase KAT6A (Homo sapiens) (UniProt Q92794); assay: Inhibition of recombinant human KAT6A (488 to 778 residues) using histone H3 peptide and [3H]-acetyl-coA as substrates at 200 uM incubated for 1 hrs by liquid scintillation counter analysis
Histone acetyltransferase KAT6A (Homo sapiens), sequence (Q92794 whole entry, looked up, the tested form may be a part): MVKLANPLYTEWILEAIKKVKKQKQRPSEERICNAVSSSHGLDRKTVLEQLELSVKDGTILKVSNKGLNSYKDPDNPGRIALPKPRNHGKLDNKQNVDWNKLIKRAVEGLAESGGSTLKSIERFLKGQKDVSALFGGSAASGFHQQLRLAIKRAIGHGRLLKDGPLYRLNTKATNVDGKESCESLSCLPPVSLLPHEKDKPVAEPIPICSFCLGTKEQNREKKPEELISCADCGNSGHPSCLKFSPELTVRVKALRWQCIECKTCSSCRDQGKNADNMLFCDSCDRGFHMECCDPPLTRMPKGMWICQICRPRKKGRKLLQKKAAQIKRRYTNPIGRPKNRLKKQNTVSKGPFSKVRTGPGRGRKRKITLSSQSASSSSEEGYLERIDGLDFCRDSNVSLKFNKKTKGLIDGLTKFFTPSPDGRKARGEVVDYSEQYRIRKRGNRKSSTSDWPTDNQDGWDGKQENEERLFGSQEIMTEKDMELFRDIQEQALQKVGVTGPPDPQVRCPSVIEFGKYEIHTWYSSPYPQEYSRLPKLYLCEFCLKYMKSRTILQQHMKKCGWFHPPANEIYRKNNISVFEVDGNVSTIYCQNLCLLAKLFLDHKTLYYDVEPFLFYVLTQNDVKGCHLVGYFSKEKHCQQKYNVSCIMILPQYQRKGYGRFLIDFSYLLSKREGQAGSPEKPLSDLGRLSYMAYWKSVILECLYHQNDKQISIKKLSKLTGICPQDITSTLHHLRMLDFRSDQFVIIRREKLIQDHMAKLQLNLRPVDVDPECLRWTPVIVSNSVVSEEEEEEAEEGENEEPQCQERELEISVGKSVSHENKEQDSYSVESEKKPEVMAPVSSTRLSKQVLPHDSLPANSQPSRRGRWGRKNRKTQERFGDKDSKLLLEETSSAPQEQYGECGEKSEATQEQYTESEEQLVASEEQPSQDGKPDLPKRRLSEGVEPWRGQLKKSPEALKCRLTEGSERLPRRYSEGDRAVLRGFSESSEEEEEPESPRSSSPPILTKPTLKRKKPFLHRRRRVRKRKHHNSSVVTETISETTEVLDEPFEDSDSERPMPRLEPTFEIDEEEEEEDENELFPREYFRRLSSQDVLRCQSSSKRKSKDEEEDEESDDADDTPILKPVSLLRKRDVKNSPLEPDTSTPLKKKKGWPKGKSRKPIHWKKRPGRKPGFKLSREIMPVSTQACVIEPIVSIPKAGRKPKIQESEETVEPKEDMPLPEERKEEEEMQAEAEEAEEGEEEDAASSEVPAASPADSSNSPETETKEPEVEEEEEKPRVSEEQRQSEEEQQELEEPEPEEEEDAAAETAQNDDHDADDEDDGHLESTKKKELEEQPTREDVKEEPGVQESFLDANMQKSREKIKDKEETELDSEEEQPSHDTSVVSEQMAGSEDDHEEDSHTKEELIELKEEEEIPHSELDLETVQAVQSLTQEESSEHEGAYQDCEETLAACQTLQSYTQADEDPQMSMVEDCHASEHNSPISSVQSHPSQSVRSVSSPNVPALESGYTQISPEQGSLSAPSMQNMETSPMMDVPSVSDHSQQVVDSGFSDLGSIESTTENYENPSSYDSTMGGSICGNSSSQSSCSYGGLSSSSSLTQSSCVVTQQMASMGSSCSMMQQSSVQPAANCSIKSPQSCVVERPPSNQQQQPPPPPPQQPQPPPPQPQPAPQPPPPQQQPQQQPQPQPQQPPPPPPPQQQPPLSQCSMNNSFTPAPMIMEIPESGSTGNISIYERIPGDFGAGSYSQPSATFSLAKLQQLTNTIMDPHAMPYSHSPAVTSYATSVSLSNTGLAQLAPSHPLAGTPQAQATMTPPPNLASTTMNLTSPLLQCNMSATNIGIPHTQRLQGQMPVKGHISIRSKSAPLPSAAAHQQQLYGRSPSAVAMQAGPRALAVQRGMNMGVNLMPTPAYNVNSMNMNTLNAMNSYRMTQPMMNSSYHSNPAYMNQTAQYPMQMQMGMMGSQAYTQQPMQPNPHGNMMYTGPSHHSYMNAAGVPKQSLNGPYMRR

[5] = target: Histone acetyltransferase KAT7 (Homo sapiens) (UniProt O95251); assay: Inhibition of recombinant human full length KAT7 using histone H3 peptide and [3H]-acetyl-coA as substrates at 200 uM incubated for 1 hrs by liquid scintillation counter analysis
Histone acetyltransferase KAT7 (Homo sapiens), sequence (O95251 whole entry): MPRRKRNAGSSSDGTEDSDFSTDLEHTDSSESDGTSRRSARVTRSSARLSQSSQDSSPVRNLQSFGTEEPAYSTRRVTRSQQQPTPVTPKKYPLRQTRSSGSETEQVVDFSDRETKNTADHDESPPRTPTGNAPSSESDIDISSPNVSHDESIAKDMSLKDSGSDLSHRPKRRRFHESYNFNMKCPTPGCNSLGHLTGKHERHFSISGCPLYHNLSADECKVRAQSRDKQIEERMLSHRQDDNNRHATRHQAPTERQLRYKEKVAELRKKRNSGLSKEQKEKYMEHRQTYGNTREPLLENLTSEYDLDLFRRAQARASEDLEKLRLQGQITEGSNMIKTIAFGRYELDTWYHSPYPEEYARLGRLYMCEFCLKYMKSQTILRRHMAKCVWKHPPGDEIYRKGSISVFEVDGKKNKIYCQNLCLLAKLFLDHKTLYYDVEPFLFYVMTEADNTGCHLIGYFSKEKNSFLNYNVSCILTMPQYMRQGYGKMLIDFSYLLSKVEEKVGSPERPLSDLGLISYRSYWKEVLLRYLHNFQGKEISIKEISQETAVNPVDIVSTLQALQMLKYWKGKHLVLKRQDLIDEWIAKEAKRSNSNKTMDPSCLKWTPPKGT

NCI-H460 = assay: Antiproliferative activity against human NCI-H460 cells assessed as cell proliferation inhibition at 10 to 100 uM incubated for 72 hrs by MTT assay; assay type: functional, cell-based; conditions: dose 10-100 µM
[6] = target: T2, Histone acetyltransferase KAT8 (Homo sapiens) (UniProt Q9H7Z6); assay: Inhibition of human KAT8 in human HT-29 cells assessed as decrease in histone H4K16 acetylation level by measuring fluorescence intensity in nucleus at 50 uM incubated for 24 hrs by DAPI staining based immunofluorescence analysis; assay type: cell-based
T2 sequence (whole entry): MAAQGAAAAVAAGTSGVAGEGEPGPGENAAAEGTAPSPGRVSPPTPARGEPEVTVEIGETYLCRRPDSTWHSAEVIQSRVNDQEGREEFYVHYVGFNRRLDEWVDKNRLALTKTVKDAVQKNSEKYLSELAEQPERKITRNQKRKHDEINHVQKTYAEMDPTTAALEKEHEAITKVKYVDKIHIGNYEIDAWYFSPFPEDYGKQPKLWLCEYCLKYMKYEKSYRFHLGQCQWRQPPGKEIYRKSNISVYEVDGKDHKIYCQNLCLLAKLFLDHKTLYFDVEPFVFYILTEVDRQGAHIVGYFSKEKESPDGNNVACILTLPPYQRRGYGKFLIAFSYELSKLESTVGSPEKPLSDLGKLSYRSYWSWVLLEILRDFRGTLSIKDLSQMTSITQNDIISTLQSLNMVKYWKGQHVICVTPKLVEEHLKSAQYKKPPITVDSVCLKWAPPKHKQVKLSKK

HeLa [7] = assay: Induction of autophagy in human HeLa cells stably expressing EGFP-LC3 assessed as change in LC3-II/LC3-I ratio at 10 to 100 uM incubated for 48 hrs by Western blot analysis; assay type: functional, cell-based; conditions: dose 10-100 µM
HCT-116 [8] = assay: Downregulation of HOXA9A mRNA expression in human HCT-116 cells at 100 uM incubated for 48 hrs by qRT-PCR analysis; assay type: functional, cell-based
HeLa [9] = assay: Induction of autophagy in human HeLa cells stably expressing EGFP-LC3 assessed as increase in p62 expression level at 10 to 100 uM incubated for 48 hrs by Western blot analysis; assay type: functional, cell-based; conditions: dose 10-100 µM

In the case of `CC1=NN(c2ccc(C(=O)O)cc2)C(=O)/C1=C\c1ccc[nH]1`, the inhibition [1] is reported as “inactive”, the Activity (HCT-116 [2]) is reported as “Active” and the Activity (HCT-116 [3]) is reported as greater than 80%. The inhibition [4] was “inactive”, the inhibition [5] was “inactive” and the Activity (NCI-H460) was “Active”.
With `O=C(O)c1ccc(N2N=C(c3ccccc3)/C(=C/c3ccc[nH]3)C2=O)cc1` the inhibition [1] was “inactive”, the Activity (HCT-116 [2]) was “Active” and the inhibition [6] was greater than 50%. The Activity (HeLa [7]) was “Active”, the Activity (HCT-116 [8]) was “Active” and the Activity (HeLa [9]) was “Active”. The Activity (NCI-H460) was “inactive”.
